The values that follow come from publication PMC10384675, “Novel Thiazolidine-2,4-dione-trimethoxybenzene-thiazole Hybrids as Human Topoisomerases Inhibitors” (Pharmaceuticals, 2023).

One test deals with caspase-9. The test can be described thus: Caspase-Glo assay, caspase-9. As to conditions: MCF-7 cells, at IC50 value, 24 h, vs vehicle. The test is classed as cell-based, human. As to the method:
(§1) Once established that mitochondria were damaged and cyt c released into the cytoplasm, we evaluated the ability of compound 7e treatment (used at its IC50 value) in modulating caspase activity.
(§2) The caspase-Glo Assay (Caspase-Glo® 3/7, 8 and 9 Assay Systems, Promega Corporation, Madison, WI) was used to detect caspase-3/7, -8 and -9 activities, as reported in [82]. Briefly, cells were grown in white-walled 96-well plates, treated with the compound, and 100 µL of each […] was added.
(§3) Figure 7 Caspase activity in MCF-7 cells. […] Columns mean, bars SD; * p < 0.001; n.s., not significant (treated vs. CTRL).

The next test deals with caspases 3/7. The test can be described thus: Caspase-Glo assay, caspase-3/7. As to conditions: MCF-7 cells, at IC50 value, 24 h, vs vehicle. The test is classed as cell-based, human. On the procedure: as §1, §2, §3

Take `COc1cc(/C=C2\SC(=O)N(CC(=O)Nc3nc(-c4ccc(Br)cc4)cs3)C2=O)cc(OC)c1OC` [compound 7e, (Z)-2-(5-(3,4,5-Trimethoxybenzylidene)thiazolidin-2,4-dion-3-yl)-N-(4-(4-bromophenyl)thiazol-2-yl)acetamide]: the caspase-9 activity entry in the test on caspase-9 is recorded as “noticeable increase”. Also, the “caspases 3/7 activity” value in the test on caspases 3/7 was “higher activity”.
